ChEMBL document CHEMBL1201862, “PubChem BioAssay data set” (2004)
Activity calls are given as the source filed them.

Assays:
[1] = HepG2 cell cytotoxicity, dose response, cytotoxicity control for Shn3 inhibitor project, CellTiter-Glo, cherry-picked (AID 624134); format: functional, cell-based
[2] = Shn3 3'UTR reporter inhibitors, dose response, cell-based, Clone20 osteoblasts, firefly luciferase, cherry-picked (AID 624132); format: functional;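 further: firefly luciferase luminescence from reporter carrying the Shn3 3'UTR in osteoblasts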
[3] = target: T1, COUP transcription factor 2 (Homo sapiens, UniProt P24468); assay: Luminescence-based cell-based high throughput dose response assay to identify inhibitors of COUP-TFII (NR2F2).; format: functional;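 further: HEK293 cells transiently cotransfected with COUP-TFII expression vector and reporter; luciferase reporter luminescence driven by COUP-TFII from the pX2-168 reporter plasmid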
T1 sequence (P24468 whole entry): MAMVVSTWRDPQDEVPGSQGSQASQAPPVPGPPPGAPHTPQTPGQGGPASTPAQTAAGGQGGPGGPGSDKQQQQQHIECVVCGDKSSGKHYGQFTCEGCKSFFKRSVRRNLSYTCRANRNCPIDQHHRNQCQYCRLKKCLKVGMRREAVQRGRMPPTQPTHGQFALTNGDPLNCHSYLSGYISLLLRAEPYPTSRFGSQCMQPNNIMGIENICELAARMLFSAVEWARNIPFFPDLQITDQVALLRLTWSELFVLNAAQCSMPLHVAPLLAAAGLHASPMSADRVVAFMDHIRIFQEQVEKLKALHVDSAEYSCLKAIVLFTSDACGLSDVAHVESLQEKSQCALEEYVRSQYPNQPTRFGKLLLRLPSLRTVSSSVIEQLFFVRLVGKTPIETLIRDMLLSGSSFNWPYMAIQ

[4] = control 3'UTR Renilla luciferase suppression, dose response, counter-screen for Shn3 inhibitor project, cell-based, Clone20-Shn3RL, cherry-picked (AID 624133); format: functional
[5] = inhibitors of firefly luciferase expression or activity, dose response, H4 neuroglioma cells, luminescence (AID 1990); format: functional, cell-based
[6] = Fluorescence-based cell-based high throughput dose response assay for inhibitors of the interaction of nucleotide-binding oligomerization domain containing 2 (NOD2) and the receptor-interacting serine-threonine kinase 2 (RIPK2).; format: functional; details: Homo sapiens
[7] = Luminescence Cell-Based Dose Response HTS to Identify Inhibitors of 5'UTR Stem-Loop Driven Prion Protein mRNA Translation in H4 Neuroglioblastoma Cells. [Related pubchem assays: 1827 (Project Summary), 1813 (Primary HTS)]; format: functional
Beta Lactamase = Beta Lactamase (Pseudomonas aeruginosa, UniProt Q932Y6); assay: beta-lactamase reporter inhibitor potency, dose response, artefact control for NOD2-RIPK2 interaction inhibitor project, BLA reporter cells, FRET fluorescence (AID 651552); format: functional, cell-based
[8] = inhibitors of SNCA 5'UTR-driven reporter translation, confirmation, H4 neuroglioma cells, luminescence (AID 1988); format: functional, cell-based
Streptococcus = assay: Group A Streptococcus viability loss, dose response, counter-screen for streptokinase expression inhibitor project, luminescence, BacTiterGlo (AID 1915); format: functional, organism-based;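 further: potency for reduction of bacterial viability or growth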
[9] = test system: Streptococcus sp. 'group A'; assay: growth inhibition of control SK(-) GAS strain, dose response, counter-screen for streptokinase expression inhibitor project, luminescence, kanamycin, BacTiterGlo, confirmation (AID 1900); format: functional, organism-based
[10] = human group III sPLA2 inhibitors, dose response, biochemical, QFRET, IC50 (AID 743457);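 further: green fluorescence rise as the enzyme cleaves BODIPY PC-A2 in liposomes; potency for inhibition of the enzyme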
[11] = NIH-3T3 fibroblast cytotoxicity, dose response, cytotoxicity control, cell-based, fluorescence, Alamar Blue, secondary assay (AID 2327); format: functional;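 further: NIH-3T3 mouse fibroblasts cultured with fluconazole at 8 µg/mL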
[12] = C. albicans growth with fluconazole, confirmation, fluorescence, retest (AID 2467); format: functional, cell-based
[13] = non-specific cell cytotoxicity, dose response, cytotoxicity control for PAX8 inhibitor project, plate reader, dry powder samples (AID 743021); format: functional, cell-based
Paired box protein Pax-8 = Paired box protein Pax-8 (Homo sapiens, UniProt Q06710); assay: inhibitors of PAX8-driven TPO luciferase reporter, dose response, RMG-I cells, cherry-pick (AID 687027); format: functional, cell-based;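 further: luciferase reporter driven by Pax8 target thyroperoxidase promoter measured by SteadyGlo luminescence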
[14] = target: T2, Ubiquitin-conjugating enzyme E2 N (Homo sapiens, UniProt P61088); format: functional;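 further: Dose-response confirmation in a TR-FRET assay detecting UBC13-driven polyubiquitin chain formation, inhibition measured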
T2 sequence (P61088 whole entry): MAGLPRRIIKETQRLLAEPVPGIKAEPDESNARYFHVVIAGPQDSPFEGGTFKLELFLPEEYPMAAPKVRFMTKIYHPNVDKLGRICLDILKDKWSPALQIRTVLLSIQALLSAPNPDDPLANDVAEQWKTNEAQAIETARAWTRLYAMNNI

[15] = A549 cell cytotoxicity, dose response, cytotoxicity control, plate reader, cherry-pick, antagonist series (AID 743412); format: functional, cell-based
INS1 = assay: beta cell apoptosis inhibitors, cytokine rescue, dose response, luminescence, retest (AID 449756); format: functional, cell-based; details: Rattus norvegicus;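 further: cell death triggered by IL-1 beta plus TNF-alpha plus IFN-gamma mixture; protective hits raise ATP signal compared with cytokine alone wells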
Albumin = Albumin (Bos taurus, UniProt P02769); assay: Counterscreen for inhibitors of T-cell receptor (TCR)-CD3 interaction: Fluorescence-based biochemical high throughput dose response assay to identify inhibitors of T-cell receptor (TCR)-CD3 interaction using a TAMRA-labeled BSA probe.; format: functional
cells [16] = format: functional, cell-based
cells [17] = format: functional, cell-based; remark: listed apart in the source
Melanocortin receptor 4 = Melanocortin receptor 4 (Homo sapiens, UniProt P32245); assay: MC4R antagonist potency on cAMP, dose response, cell-based, TR-FRET, biased antagonists (AID 602298); format: functional;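 further: antagonist potency against agonist-stimulated cAMP production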
[18] = nonselective inhibitors of cellular cAMP signaling, dose response, counter-screen for MC4R biased antagonist project, cell-based, TR-FRET cAMP detection (AID 602305); format: functional;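 further: U2OS cells stimulated with forskolin near its EC80 as the cAMP inducer; potency is for inhibition of forskolin-stimulated cAMP signaling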
[19] = target: T3, Corticotropin-releasing factor receptor 2/Corticotropin-releasing factor-binding protein (Homo sapiens, UniProt P24387+Q13324); assay: activators of CRF receptor 2 with binding protein – uHTS hits, confirmation (AID 602473); format: functional; details: read-out: EC50_Mean
T3 sequence (Q13324 whole entry): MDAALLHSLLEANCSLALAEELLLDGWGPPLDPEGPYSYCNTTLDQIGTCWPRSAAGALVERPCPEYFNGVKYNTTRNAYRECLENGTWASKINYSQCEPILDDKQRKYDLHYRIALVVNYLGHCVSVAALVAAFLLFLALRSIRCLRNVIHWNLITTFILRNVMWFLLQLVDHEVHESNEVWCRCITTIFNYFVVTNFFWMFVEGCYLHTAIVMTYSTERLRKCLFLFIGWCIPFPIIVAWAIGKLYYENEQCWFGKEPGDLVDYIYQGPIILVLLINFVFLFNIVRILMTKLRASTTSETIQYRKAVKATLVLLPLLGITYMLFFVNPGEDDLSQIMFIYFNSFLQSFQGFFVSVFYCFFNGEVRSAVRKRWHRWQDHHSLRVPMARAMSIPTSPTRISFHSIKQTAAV
T3 sequence (P24387 whole entry): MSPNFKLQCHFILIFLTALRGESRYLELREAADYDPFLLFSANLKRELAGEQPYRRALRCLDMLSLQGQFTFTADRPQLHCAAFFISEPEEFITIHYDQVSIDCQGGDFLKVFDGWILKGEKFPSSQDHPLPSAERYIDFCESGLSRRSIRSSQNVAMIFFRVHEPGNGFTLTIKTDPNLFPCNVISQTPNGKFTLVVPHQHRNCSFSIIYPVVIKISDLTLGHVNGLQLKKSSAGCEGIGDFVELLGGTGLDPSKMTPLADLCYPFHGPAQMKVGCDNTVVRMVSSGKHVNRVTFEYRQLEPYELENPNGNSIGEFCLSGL

[20] = target: T3, Corticotropin-releasing factor receptor 2/Corticotropin-releasing factor-binding protein; assay: Dose Response confirmation of uHTS hits for small molecule antagonists of the CRF-binding protein and CRF-R2 receptor complex.; format: functional; details: read-out: IC50_Mean

Chain of Paired box protein Pax-8 (Q06710 whole entry): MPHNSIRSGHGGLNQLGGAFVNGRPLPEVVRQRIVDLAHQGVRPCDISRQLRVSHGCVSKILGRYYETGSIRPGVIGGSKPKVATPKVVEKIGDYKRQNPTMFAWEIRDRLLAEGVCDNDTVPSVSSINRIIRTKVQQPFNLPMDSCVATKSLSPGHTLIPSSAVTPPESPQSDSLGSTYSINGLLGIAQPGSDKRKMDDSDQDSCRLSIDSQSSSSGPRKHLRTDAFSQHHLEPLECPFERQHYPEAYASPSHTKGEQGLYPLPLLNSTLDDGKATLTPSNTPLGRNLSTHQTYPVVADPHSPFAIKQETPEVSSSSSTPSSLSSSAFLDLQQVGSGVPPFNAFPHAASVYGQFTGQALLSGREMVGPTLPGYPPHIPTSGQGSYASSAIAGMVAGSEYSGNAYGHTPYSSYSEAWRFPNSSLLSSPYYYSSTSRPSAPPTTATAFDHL
Chain of Beta Lactamase (Q932Y6 whole entry): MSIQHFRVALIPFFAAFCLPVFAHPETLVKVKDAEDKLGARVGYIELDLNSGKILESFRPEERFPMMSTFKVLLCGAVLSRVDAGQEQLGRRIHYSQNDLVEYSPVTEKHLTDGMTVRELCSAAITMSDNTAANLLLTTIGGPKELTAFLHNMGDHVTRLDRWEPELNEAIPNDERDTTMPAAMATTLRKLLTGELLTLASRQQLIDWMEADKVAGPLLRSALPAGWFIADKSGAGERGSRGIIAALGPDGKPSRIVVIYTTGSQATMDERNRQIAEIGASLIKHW
Chain of Albumin (P02769 whole entry): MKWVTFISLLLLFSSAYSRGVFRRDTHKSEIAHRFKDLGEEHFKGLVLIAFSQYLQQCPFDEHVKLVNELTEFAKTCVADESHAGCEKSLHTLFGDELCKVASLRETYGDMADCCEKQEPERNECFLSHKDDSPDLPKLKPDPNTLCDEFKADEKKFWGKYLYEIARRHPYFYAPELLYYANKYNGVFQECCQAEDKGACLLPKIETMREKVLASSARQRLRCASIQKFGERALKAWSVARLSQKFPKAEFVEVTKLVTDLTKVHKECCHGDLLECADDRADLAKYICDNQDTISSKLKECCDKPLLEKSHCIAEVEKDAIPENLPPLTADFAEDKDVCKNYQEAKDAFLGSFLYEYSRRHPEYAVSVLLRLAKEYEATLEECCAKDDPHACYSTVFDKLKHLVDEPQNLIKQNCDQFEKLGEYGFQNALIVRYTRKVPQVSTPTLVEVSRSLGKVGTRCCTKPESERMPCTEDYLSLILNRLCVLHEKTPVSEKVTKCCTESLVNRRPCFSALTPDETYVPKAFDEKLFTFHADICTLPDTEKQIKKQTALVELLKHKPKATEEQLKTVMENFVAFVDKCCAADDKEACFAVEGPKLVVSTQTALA
Chain of Melanocortin receptor 4 (P32245 whole entry): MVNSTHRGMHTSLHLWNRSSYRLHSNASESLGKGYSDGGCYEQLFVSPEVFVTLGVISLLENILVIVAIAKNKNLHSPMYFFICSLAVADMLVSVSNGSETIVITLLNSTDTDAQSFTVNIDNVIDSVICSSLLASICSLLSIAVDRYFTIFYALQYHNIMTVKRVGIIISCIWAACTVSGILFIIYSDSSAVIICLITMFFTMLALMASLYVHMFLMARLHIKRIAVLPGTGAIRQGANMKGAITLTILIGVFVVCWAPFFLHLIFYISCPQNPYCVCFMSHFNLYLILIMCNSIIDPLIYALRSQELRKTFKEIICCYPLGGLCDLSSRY

## COc1ccc(NC(=O)COc2ccc(N(C)S(=O)(=O)c3ccc(Cl)cc3)cc2)cc1OC
[1]
  AC50: 32.1 µM (active)
[2]
  AC50: 1.35 µM (active)
[3]
  IC50: 6.67 µM (active)
[4]
  AC50: 1.81 µM (active)

## Cc1cccc(CS(=O)(=O)c2ncc(Cl)c(C(=O)NCc3ccccc3)n2)c1
[5]
  EC50: > 120 µM (not active)
[1]
  AC50: 18.8 µM (active)
[6]
  IC50: 2.77 µM (active)
[2]
  AC50: 2.94 µM (active)
[7]
  EC50: 26.1 µM (active)
[4]
  AC50: 14 µM (active)
Beta Lactamase
  IC50: 12.3 µM (inactive)
[8]
  EC50: 12 µM (active)

## S=C(Nc1ccc(Cl)cc1)c1nc2ccccc2[nH]1
Streptococcus
  EC50: 3.17 µM (active)
[9]
  EC50: 1.26 µM (active)
[10]
  IC50: > 122 µM (inactive)
[11]
  EC50: 19 µM (active)
[12]
  EC50: > 38 µM (not active)

## Cc1nc(-c2ccc(NC(=O)c3ccco3)cc2)cs1
[13]
  AC50: 17.1 µM (active)
Paired box protein Pax-8
  AC50: 8.26 µM (active)

## COc1cccc(/C=C2/Sc3ccc(C(=O)NCCN4CCCCCC4)cc3NC2=O)c1
[13]
  AC50: 36 µM (active)
[14]
  IC50: > 20 µM (inactive)
Paired box protein Pax-8
  AC50: 10.1 µM (active)

## CC(=O)N1CCc2cc(S(=O)(=O)C(C)CC(=O)NCc3ccco3)ccc21 (stereo unspecified)
[15]
  AC50: > 52 µM (inactive)

## Cc1cc(Br)cc(/C=N/NC(=O)c2ccc3c(c2)OCO3)c1O
INS1
  AC50: 1.32 µM (active)
Streptococcus
  EC50: 3.25 µM (active)
Albumin
  IC50: > 94.1 µM (inactive)
[9]
  EC50: 1.22 µM (active)
Cells [16]
  EC50: 75.7 µM (active)
[10]
  IC50: > 122 µM (inactive)
Cells [17]
  EC50: 96.8 µM (active)

## CC(OC(=O)c1ccc(S(C)(=O)=O)c([N+](=O)[O-])c1)C(=O)NC1C2CC3CC(C2)CC1C3 (stereo unspecified)
[1]
  AC50: 8.28 µM (active)
[6]
  IC50: 0.8 µM (active)
[13]
  AC50: 22.6 µM (active)
[2]
  AC50: 1.4 µM (active)
Melanocortin receptor 4
  IC50: > 64.6 µM (inactive)
[18]
  IC50: > 64.6 µM (inactive)
Paired box protein Pax-8
  AC50: 5.88 µM (active)
[4]
  AC50: 7.51 µM (active)
Beta Lactamase
  IC50: 49.8 µM (inactive)

## Nc1ccc(S(=O)(=O)Nc2ccc(Cl)nn2)cc1 [SULFACHLORPYRIDAZINE]
[19]
  EC50: > 53 µM (inactive)
[20]
  IC50: > 47.1 µM (inactive)
